Results on 13 compounds are retold here after patent US6403626B1, “Benzimidazole derivatives” (Synaptic Pharmaceutical Corporation, priority 1994, dated 2002).

Test [1] addresses T1, α2B Human Adrenergic Receptor (Homo sapiens, UniProt P18089).
T1 construct: expressed in transfected cells; host or cells: Y-1 cells
T1 sequence (P18089 1-450): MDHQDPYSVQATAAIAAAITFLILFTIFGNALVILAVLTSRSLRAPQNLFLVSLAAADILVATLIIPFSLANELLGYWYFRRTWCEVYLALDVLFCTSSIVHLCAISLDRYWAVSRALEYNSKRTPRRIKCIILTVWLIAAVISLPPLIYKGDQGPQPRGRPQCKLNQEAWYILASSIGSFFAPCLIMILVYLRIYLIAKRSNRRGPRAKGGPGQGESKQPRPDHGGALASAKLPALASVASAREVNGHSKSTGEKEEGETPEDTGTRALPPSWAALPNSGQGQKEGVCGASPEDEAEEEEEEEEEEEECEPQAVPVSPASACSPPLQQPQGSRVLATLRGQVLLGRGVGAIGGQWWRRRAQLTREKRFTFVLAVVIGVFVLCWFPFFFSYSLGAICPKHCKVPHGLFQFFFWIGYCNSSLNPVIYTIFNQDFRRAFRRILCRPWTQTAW
As to the kind of experiment: Equilibrium competition binding, [3H] rauwolscine, membranes of transfected Y-1 cells. Particulars: for Ki: cloned human receptor, [3H] rauwolscine, read-out: pKi Alpha-2 B (converted). Here is the method: (§1) Binding and functional assays were performed using stably transfected human alpha adrenergic receptors. Equilibrium competition binding assays were performed with membrane preparations from cultured LM(tk-) cells stably transfected with the cloned human adrenoceptor subtypes except for α2b, which was expressed in Y-1 cells, using [^3H] prazosin for α1 receptors and [^3H] rauwolscine for α2 receptors.
(§2) Stable cell lines were selected as described above.
(§3) Transfected cells from culture flasks were scraped into 5 ml of 5 mM Tris-HCl, 5 mM EDTA, pH 7.5, and lysed by sonication. The cell lysates were centrifuged at 1000 rpm for 5 min at 4° C., and the supernatant was centrifuged at 30,000×g for 20 min at 4° C. The pellet was suspended in 50 mM Tris-HCl, 1 mM MgCl2, and 0.1% ascorbic acid at pH 7.5. Binding of α2 antagonist [^3H] rauwolscine ([…]) to membrane preparations of LM(tk-) cells was done in a final volume of 0.25 ml and incubated at 37° C. for 20 min. Nonspecific binding was determined in the presence of 10 μM phentolamine. The reaction was stopped by filtration through GF/B filters using a cell harvester.

For test [2], the target named is T2, α1A Human Adrenergic Receptor (Homo sapiens, UniProt P25100).
T2 construct: expressed in transfected cells; host or cells: LM(tk-) cells
T2 sequence (P25100 1-572): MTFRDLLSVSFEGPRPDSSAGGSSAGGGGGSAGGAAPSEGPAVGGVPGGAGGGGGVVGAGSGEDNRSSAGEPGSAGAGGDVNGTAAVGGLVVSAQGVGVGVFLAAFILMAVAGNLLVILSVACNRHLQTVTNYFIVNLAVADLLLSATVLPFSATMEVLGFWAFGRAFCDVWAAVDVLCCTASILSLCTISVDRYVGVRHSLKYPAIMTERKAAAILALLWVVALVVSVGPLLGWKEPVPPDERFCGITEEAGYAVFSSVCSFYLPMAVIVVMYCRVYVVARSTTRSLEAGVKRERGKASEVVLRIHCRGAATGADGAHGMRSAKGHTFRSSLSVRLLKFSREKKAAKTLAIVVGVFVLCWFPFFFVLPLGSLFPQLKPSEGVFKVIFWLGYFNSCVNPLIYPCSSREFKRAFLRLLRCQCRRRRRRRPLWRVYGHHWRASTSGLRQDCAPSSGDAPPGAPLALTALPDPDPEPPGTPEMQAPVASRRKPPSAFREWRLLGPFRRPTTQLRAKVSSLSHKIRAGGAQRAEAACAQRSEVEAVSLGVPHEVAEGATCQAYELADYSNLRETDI
Description: Equilibrium competition binding, [3H] prazosin, membranes of transfected LM(tk-) cells. The conditions noted are these: for Ki: cloned human receptor, [3H] prazosin, read-out: pKi Alpha-1 A (converted). Here is the method:
as §1, §3, §2

Test [3] concerns the target T3, α1B Human Adrenergic Receptor (Homo sapiens, UniProt P35368).
T3 construct: The entire coding region of α1B(1563 bp); expressed in transfected cells; host or cells: LM(tk-) cells
T3 sequence (P35368 1-520): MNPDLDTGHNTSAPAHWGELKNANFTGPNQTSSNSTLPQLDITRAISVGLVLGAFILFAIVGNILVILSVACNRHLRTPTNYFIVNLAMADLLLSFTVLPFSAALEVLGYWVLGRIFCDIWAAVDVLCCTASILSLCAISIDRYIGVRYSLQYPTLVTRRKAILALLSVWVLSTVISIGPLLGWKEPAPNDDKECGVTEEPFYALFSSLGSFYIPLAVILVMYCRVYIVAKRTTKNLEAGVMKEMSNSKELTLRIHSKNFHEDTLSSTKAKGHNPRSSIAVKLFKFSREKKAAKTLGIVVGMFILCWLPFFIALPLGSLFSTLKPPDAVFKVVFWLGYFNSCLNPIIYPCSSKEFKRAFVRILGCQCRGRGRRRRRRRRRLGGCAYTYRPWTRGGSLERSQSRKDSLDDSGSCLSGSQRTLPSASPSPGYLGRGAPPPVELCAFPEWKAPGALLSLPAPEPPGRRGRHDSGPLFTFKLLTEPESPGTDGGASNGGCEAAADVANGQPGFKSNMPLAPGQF
The test is described as above. The conditions noted are these: for Ki: cloned human receptor, [3H] prazosin, read-out: pKi Alpha-1 B (converted). Here is the method:
as §1, §3
The construct involved ligating the full-length containing EcoRI brainstem cDNA fragment from ZapII into the expression vector. The stable cell lines were selected as described above.

Test [4] has as its target T4, α1C Human Adrenergic Receptor (Homo sapiens, UniProt P35348).
T4 construct: expressed in transfected cells; host or cells: LM(tk-) cells
T4 sequence (P35348 1-466): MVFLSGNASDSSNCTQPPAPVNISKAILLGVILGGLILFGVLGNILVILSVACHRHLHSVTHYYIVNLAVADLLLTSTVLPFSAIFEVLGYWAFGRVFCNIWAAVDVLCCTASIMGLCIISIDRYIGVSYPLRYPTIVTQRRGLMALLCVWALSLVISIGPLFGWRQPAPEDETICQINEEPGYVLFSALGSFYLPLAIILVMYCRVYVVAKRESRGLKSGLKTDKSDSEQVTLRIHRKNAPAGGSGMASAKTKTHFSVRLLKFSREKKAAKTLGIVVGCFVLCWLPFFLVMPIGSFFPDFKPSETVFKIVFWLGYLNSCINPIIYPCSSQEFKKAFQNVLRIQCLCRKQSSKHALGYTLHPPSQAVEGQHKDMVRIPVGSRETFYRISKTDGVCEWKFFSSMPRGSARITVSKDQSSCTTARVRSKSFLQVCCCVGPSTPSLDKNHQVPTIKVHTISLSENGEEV
Described as above. Particulars: for Ki: cloned human receptor, [3H] prazosin, read-out: pKi Alpha-1 C (converted). Here is the method:
as §1, §3
The construct involved ligation three partial overlapping fragments: a 5′ 0.6 kb HincII genomic clone, a central 1.8 EcoRI hippocampal cDNA clone, and a 3′ 0.6 Kb PstI genomic clone. The hippocampal cDNA fragment overlaps with the 5′ and 3′ genomic clones so that the HincII and PstI sites at the 5 and 3′ ends of the cDNA clone, respectively, were utilized for ligation. This full-length clone was cloned into the KpnI site of the expression vector, using the 5′ and 3′ KpnI sites of the fragment, derived from vector (i.e., pBluescript) and 3′-untranslated sequences, respectively. Stable cell lines were selected as described above.

The target of test [5] is T5, α2C Human Adrenergic Receptor (Homo sapiens, UniProt P18825).
T5 sequence (P18825 1-462): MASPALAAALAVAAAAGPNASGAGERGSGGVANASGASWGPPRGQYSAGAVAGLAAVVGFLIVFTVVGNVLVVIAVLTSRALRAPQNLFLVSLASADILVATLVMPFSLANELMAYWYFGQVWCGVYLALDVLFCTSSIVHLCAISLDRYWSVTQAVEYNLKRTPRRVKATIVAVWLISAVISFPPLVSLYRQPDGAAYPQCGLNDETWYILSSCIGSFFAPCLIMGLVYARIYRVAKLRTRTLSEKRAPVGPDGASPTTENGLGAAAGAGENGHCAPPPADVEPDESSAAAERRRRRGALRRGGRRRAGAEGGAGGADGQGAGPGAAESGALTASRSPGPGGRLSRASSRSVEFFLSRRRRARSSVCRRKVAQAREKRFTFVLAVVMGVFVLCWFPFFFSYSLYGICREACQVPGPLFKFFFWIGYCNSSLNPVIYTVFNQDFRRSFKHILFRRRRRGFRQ
As to the kind of experiment: Equilibrium competition binding, [3H] rauwolscine, membranes of transfected LM(tk-) cells.

pKi: −log10 of the molar value. Like-named read-outs stand apart in the source and are kept apart here.

Turning to `c1cc2c(cc1NC1=NCCN1)ncn2CC1CCCCC1` [Example 29, 1-Cyclohexylmethyl-5-(2-imidazolin-2-ylamino)Benzimidazole], the Ki in test [1] is 363 nM; in test [2], 912 nM; in test [3], 20.9 µM; in test [4], 1410 nM. Besides, the pKi (commonly the negative decadic logarithm of the Ki, by convention in mol/L) in test [5] is 6.31.
Consider `CC(C)n1cnc2c(Br)c(NC3=NCCN3)ccc21` [Example 18, 1-Isopropyl-4-bromo-5-(2-imidazolin-2-ylamino)Benzimidazole], for which the pKi in test [1] is 6.43; in test [2] it was 5.57; in test [5], 6.55. Moreover, the Ki is 20 µM in test [3] and 891 nM in test [4].
For `CC(C)n1cnc2ccc(NC3=NCCN3)cc21` [Example 20, 3-Isopropyl-5-(2-imidazolin-2-ylamino)Benzimidazole], the figures for the Ki in test [1], in test [3] and in test [4] were 724 nM, 58.9 µM and 11200 nM, respectively. In addition, the negative-log Ki (pKi) was 4.83 in test [2] and 6.20 in test [5].
With `Brc1c(NC2=NCCN2)ccc2c1ncn2C1CCCC1` [Example 26, 1-Cyclopentyl-4-bromo-5-(2-imidazolin-2-ylamino)Benzimidazole], the Ki in test [1] is 562 nM; in test [2] it was 8910 nM; in test [3], 57.5 µM; in test [4], 9550 nM. The pKi in test [5] was 6.59.
As to `Cn1cnc2ccc(NC3=NCCN3)cc21` [Example 11, 3-Methyl-5-(2-imidazolin-2-ylamino)Benzimidazole], the pKi in test [1] is 6.65; in test [2] it was 5.00; in test [5], 5.95. In addition, the Ki in test [3] was 35.5 µM; in test [4], 5750 nM.
As to `CC(C)Cn1cnc2c(Br)c(NC3=NCCN3)ccc21` [Example 23, 1-Isobutyl-4-bromo-5-(2-imidazolin-2-ylamino)Benzimidazole], the Ki in test [1] was 309 nM; in test [3], 38 µM; in test [4], 380 nM. The results for the pKi in test [2] and in test [5] were 5.30 and 6.64, respectively.
Regarding `Brc1c(NC2=NCCN2)ccc2ncn(C3CCCC3)c12` [Example 28, 3-Cyclopentyl-4-bromo-5-(2-imidazolin-2-ylamino)Benzimidazole], the Ki in test [1] was 41.7 nM. In addition, the pKi is 6.18 in test [2], 4.98 in test [3], 5.42 in test [4] and 7.02 in test [5].
Consider `NCCn1cnc2c(Br)c(NC3=NCCN3)ccc21` [Example 40, 1-(2-Aminoethyl)-4-bromo-5-(2-imidazolin-2-ylamino)Benzimidazole], for which the Ki in test [1] was 955 nM; in test [2], 9330 nM; in test [3] it was 26.9 µM; in test [4] it was 9120 nM. Moreover, the pKi in test [5] is 5.55.
Consider `Brc1c(NC2=NCCN2)ccc2ncn(CC3CCCCC3)c12` [Example 31, 3-Cyclohexylmethyl-4-bromo-5-(2-imidazolin-2-ylamino)Benzimidazole], for which the Ki in test [1] is 37.2 nM. For the same compound, the pKi was 6.59 in test [2], 5.67 in test [3], 6.43 in test [4] and 7.41 in test [5].
Taken in the same sequence, the figures for `OCCn1cnc2ccc(NC3=NCCN3)c(Br)c21` [Example 39, 3-(2-Hydroxyethyl)-4-bromo-5-(2-imidazolin-2-ylamino)Benzimidazole] were 490 nM, 5.80, 4.96, 5.32 and 6.21.
Turning to `CC(C)Cn1cnc2ccc(NC3=NCCN3)c(Br)c21` [Example 24, 3-Isobutyl-4-bromo-5-(2-imidazolin-2-ylamino)Benzimidazole], the pKi was 7.89 in test [1] and 6.51 in test [2]. The Ki was 4.9 µM in test [3] and 251 nM in test [4].
As for `CCCn1cnc2ccc(NC3=NCCN3)c(Br)c21` [Example 16, 3-Propyl-4-bromo-5-(2-imidazolin-2-ylamino)Benzimidazole], the Ki was 12.3 nM in test [1], 0.513 µM in test [3] and 417 nM in test [4]. This compound also had a pKi in test [2] of 7.26.
Turning to `CC(C)n1cnc2ccc(NC3=NCCN3)c(Br)c21` [Example 21, 3-Isopropyl-4-bromo-5-(2-imidazolin-2-ylamino)Benzimidazole], the Ki in test [1] was 21.4 nM; in test [3] it was 4.68 µM; in test [4] it was 1200 nM. The compound also showed a pKi in test [2] of 6.13.
